# Assay results as given in patent US20150366962A1 (priority 2014, published 2015).
# System: H5 (VN/04), H11 and H12 subtype HAs
# Design: species or system mice
# Conditions: mouse, in vivo
Structure (SMILES),IgG subtype profile (IgG2a/IgG1) to H5 subtype HA,IgG titers reacting to H11 subtype versus unadjuvanted control,IgG titers reacting to H12 subtype versus unadjuvanted control,serum IgG reactivity to the H5 subtype HA (VN/04) versus no adjuvant
CCCCCCCCC=CCCCCCCCC(=O)OCC(COP(=O)(O)OCCNC(=O)c1ccc(Cn2c(=O)[nH]c3c(N)nc(OCCOC)nc32)cc1)OC(=O)CCCCCCCC=CCCCCCCCC (centres unmarked) [Compound 1V270],inducing IgG2a,significantly better than the unadjuvanted control,significantly better than the unadjuvanted control,significantly higher reactivity
Cn1c2ccccc2c2nc(SCC(=O)NC3CCCCC3)n(-c3ccccc3)c(=O)c21 [Compound 1Z105],induced primarily IgG1,–,–,–
